Test results taken from patent US8809372B2, “Pyridine derivatives” (Endo Pharmaceuticals, Inc., priority 2011, dated 2014).

Tests used:
[1] = biological target: T1, human CYP17 in H295R adrenocortical carcinoma cells (Homo sapiens, UniProt P05093); experiment: Cell-based human CYP17 inhibition assay, H295R cells; conditions: 16 hours, read-out: CYP17 (human H295R adrenal cells)
T1 construct: H295R Adrenocortical carcinoma cells [NCI-H295A, ATCC Number CRL-2128, American Type Culture Collection; host or cells: H295R adrenocortical carcinoma cells
T1 sequence (P05093 1-508): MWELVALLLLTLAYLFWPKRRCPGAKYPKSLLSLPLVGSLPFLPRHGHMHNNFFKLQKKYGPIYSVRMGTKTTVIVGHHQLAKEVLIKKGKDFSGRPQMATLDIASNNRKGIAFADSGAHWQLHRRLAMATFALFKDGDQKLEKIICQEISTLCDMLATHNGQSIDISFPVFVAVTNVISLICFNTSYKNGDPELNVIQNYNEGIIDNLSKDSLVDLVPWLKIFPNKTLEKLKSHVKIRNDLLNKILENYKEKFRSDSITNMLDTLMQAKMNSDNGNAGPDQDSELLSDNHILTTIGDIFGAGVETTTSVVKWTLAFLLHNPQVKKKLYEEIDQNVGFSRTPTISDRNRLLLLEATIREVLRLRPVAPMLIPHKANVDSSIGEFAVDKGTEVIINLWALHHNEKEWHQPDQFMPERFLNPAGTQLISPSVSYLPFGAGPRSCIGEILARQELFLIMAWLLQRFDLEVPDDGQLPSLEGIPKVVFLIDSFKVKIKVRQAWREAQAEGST
Experimental: Cell-Based Human CYP17 Inhibition Assay
1. H295R Adrenocortical Carcinoma Cells and Growth Media: The media for the H295R Adrenocortical carcinoma cells [NCI-H295A, ATCC Number CRL-2128, American Type Culture Collection, Manassas, Va., US] (500 mL) was a DMEM:F12 Mix 1:1 with 5% (2 mL) BD Nu Serum; 1% (5 mL) ITS+Premix [BD Biosciences] and 1% Penstrep. 2. LNCap-CYP17 Cells and Growth Media: Full length hCYP17a1 gene (NCBI Reference Sequence: NM_000102.3) was cloned in pcDNA3.1(+) vector between HindIII and XhoI site. The pcDNA3.1(+) vector contains the Neomycin resistance gene and was used for selection of stable cell line. The hCYP17a1 containing pcDNA3.1(+) was transfected into LNCap cells to create the LNCap-CYP17 cell line. The media for the LNCaP-CYP17 cells was RPMI 1640, 10% FBS, 1% PenStrep, Geneticin 400 μg/mL.
The H295R cells or LNCaP-hCYP17 cells were subcultured and 30,000 cells per well were seeded in a poly-d lysine plate and incubated overnight at 37° C. The next day the media was removed and 200 μL of fresh media with ^3H3-17α-hydroxy-pregnenolone (1:1000) was added. 50 μL of serially diluted compounds from a 5× plate (5 times the final desired concentration) was added. The working concentration range for active, new compounds started from a high concentration of 10 μM with 3-fold serial dilutions generating up to 10 concentrations. The serial dilution in the 100× plate (in DMSO) and the stamping of a 5× plate (in media) from the 100× plate were carried out using a TECAN liquid handling device.
The plates were incubated overnight (16 hours) at 37° C. After 16 hours, the media was removed (approximately 220 μL) and an equal amount of chloroform was added, mixed and incubated for 30 minutes at 4 degrees. The plate was centrifuged at 4000 rpm for 15 minutes at 4° C., following which the top aqueous layer was carefully removed and added into a new deep well plate. An equal volume of activated 5% charcoal was added, mixed and incubated for 30 minutes at 4° C. The plate was then centrifuged at 4000 rpm for 15 minutes at 4° C. and the top layer carefully separated, avoiding any charcoal contamination, and placed in a white, clear bottom plate (plate cat #3610, Corning Life Sciences). An equal volume of Microscint™ 40 was added and mixed well. Following the incubation for 30 minutes, readings for the radiotracer were taken using a Microbeta® trilux.

[2] = biological target: T2, rat CYP17 (rat testicular microsomes) (Rattus norvegicus, UniProt P11715); experiment: CYP17 inhibition assay in rat testicular microsomes; assay type: biochemical
T2 construct: Rat testis tissue was collected and disrupted with 30 strokes of a glass homogenizer; from tissue; host or cells: rat testis (microsomes)
T2 sequence (P11715 1-507): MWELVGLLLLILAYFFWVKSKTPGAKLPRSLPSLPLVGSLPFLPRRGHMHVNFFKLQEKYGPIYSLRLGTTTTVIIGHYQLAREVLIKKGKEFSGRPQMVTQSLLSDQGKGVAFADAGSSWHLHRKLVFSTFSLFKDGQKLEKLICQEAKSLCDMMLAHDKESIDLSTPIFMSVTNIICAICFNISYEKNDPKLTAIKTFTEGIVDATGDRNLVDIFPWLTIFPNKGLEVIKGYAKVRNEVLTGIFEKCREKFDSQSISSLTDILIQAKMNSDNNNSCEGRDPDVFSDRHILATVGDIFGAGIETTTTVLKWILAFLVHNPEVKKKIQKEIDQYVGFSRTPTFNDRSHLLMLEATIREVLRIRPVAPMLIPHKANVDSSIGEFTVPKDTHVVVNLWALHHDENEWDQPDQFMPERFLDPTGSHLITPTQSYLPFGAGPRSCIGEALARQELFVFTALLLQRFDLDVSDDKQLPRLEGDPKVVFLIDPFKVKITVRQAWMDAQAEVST
Experimental: CYP17 Inhibition Assay in Rat Testicular Microsomes (Rat CYP17) or Yeast Microsome Overexpressing Human CYP17
1. NADPH (Sigma): A working stock was prepared by adding 25 μL of 6.5 mM NADPH in each tube. The final concentration of NADPH used in the assay was 325 μM.
2. Potassium Phosphate Buffer: One molar (1M) solutions of K2HPO4 and KH2PO4 were prepared. Eight mL of the 1 M KH2PO4 and 1.98 mL of the 1 M K2HPO4 were combined and the pH was adjusted to 7.4.
3. ^3H3-17α-hydroxypregnenolone (American Radiolabeled Chemicals, Inc., stock 1 μCi/μL): A 1:1 dilution of ^3H3-17α-hydroxypregnenolone in ethanol was prepared by combining 100 μL ^3H3-17α-hydroxypregnenolone+100 μL ethanol for one complete 96 well plate. For the reaction, 2 μL of the diluted ^3H3-17α-hydroxypregnenolone was added in each tube, i.e., 1 μCi/reaction. 4. Microsome Isolation Buffer: The microsome isolation buffer was prepared by combining 250 mM Sucrose, 5 mM EDTA, 10 mM Tris HCl, 4 mM DTT, and adjusting to pH 7.4. 5. TEG Buffer: The TEG buffer was prepared by combining 50 mM Tris HCl, 1 mM EDTA, and 20% Glycerol. 6. Rat Testicular Microsomes: Rat testis tissue was collected and disrupted with 30 strokes of a glass homogenizer on ice with 250 μL of microsome isolation buffer, followed by centrifugation at 10,000 g for 10 minutes at 4° C. The supernatant was collected and centrifuged at 100,000 g for 45 minutes at 4° C. The pellet was dissolved in TEG Buffer and the protein was quantified. The homogenized microsome samples were then frozen at −80° C. • 7. Yeast Microsomes which overexpress the human CYP17 enzyme were obtained from Premas Biotech, India.
Potassium phosphate buffer (470 μL) was prepared as described above and was added to each well of a deep well plate. The test compound was diluted using a TECAN liquid handler and 5 μL of diluted compound was transferred to each well (96 deep well/1 mL). A solution (25 μL) of 6.5 mM NADPH was added (final concentration of 325 μM in the assay). ^3H3-17α-hydroxypregnenolone (2 μL of the working stock) was added to each tube. The plates were then pre-incubated for 15 minutes at 37° C. Following the pre-incubation, either 5 μL rat testicular microsomes (150-160 μg) or 5 μL of yeast microsomes expressing human CYP17 (1.7 pmol), was added. Incubation was at 37° C. for 60 minutes in the presence of oxygen. The plates were then placed in ice and chloroform (500 μL) was added, mixed well and incubated at 4° C. for 20 minutes. The plates were then centrifuged at 1000 rpm for 15 minutes at 4° C.
A portion (300 μL) of the aqueous solution was collected and mixed with a 5% aqueous suspension of activated charcoal (300 μL). The plates were then incubated at 4° C. for 30 minutes, after which the plates were centrifuged at 1000 rpm for 15 minutes at 4° C. From this, 125 μL of the aqueous solution was collected and plated into a 96 well plate. Microscint™ 40 [125 μL, Perkin-Elmer; containing a mixture of a polymer based on alkylphenolethoxylate (20-40%), diethanolamine-phosphoric acid ester ammonium salt (10-20%), sodium dioctyl sulphosuccinate (2.5-10%), triethyl phosphate (2.5-10%), 3,6-dimethyl-4-octyne-3,6-diol (≦2.5%), a polymer based on nonylphenolethoxylate (≦2.5%), diisopropyl naphthalene isomers (40-60%), 2,5-diphenyloxazole (≦2.5%), and 9,10-dimethylanthracene] was added and mixed well. After 30 minutes of incubation, the samples were analyzed with a MicroBeta® Trilux microplate liquid scintillation counter and luminometer (Perkin-Elmer).

SMILES | IC50 [1] [nM] | IC50 [2] [nM]
CC(O)(c1ccncc1)c1cc(-c2ccc(F)cc2)sn1 (stereo not drawn) [Example 63, 1-(5-(4-fluorophenyl)isothiazol-3-yl)-1-(pyridin-4-yl)ethanol] | < 50 | < 50
CC(O)(c1ccncc1)c1cnc(-c2ccc(F)cc2)cn1 (stereo not drawn) [Example 11, 1-(5-(4-Fluorophenyl)pyrazin-2-yl)-1-(pyridin-4-yl)ethanol] | 201 to 10000 | < 50
CC(O)(c1ccncc1)c1ccc(-c2ccc(C#N)cc2)cn1 (stereo not drawn) [Example 10, 4-(6-(1-hydroxy-1-(pyridin-4-yl)-ethyl)pyridin-3-yl)-benzonitrile] | 201 to 10000 | < 50
Cn1cc(-c2ncc(C(C)(O)c3ccncc3)o2)ccc1=O (stereo not drawn) [Example 60, 5-(5-(1-hydroxy-1-(pyridin-4-yl)-ethyl)oxazol-2-yl)-1-methylpyridin-2(1H)-one] | 201 to 10000 | 201 to 10000
OC(c1ccncc1)c1cnc(-c2ccc(F)cc2)s1 (stereo not drawn) [Example 24, [2-(4-fluorophenyl)-1,3-thiazol-5-yl](pyridin-4-yl)methanol] | 50 to 200 | < 50
CCC(O)(c1ccncc1)c1cnc(-c2cn[nH]c2)s1 (stereo not drawn) [Example 18, 1-(2-(1H-Pyrazol-4-yl)thiazol-5-yl)-1-(pyridin-4-yl)propan-1-ol] | < 50 | < 50
CC(C)CC(O)(c1ccncc1)c1cnc(-c2ccc(F)cc2)s1 (stereo not drawn) [Example 47, 1-(2-(4-fluorophenyl)thiazol-5-yl)-3-methyl-1-(pyridin-4-yl)butan-1-ol] | < 50 | < 50
CC(O)(c1ccncc1)c1nnc(-c2ccc(F)cc2)o1 (stereo not drawn) [Example 31, 1-(5-(4-Fluorophenyl)-1,3,4-oxadiazol-2-yl)-1-(pyridin-4-yl)ethanol] | 201 to 10000 | 50 to 200

Results, then the compound that gave them:

IC50 [1] [nM] | IC50 [2] [nM] | SMILES
50 to 200 | < 50 | CC(O)(c1ccncc1)c1cnc(-c2ccc(C#N)c(Cl)c2)s1 (stereo not drawn) [Example 38, 2-chloro-4-(5-(1-hydroxy-1-(pyridin-4-yl)ethyl)thiazol-2-yl)benzonitrile]
201 to 10000 | < 50 | CC(O)(c1ccncc1)c1cnc(-c2cncnc2)s1 (stereo not drawn) [Example 64, 1-(pyridin-4-yl)-1-(2-(pyrimidin-5-yl)thiazol-5-yl)ethanol]
50 to 200 | < 50 | CC(N)(c1ccncc1)c1cnc(-c2ccc(F)cc2)s1 (stereo not drawn) [Example 68, 1-(2-(4-Fluorophenyl)thiazol-5-yl)-1-(pyridin-4-yl)ethanamine]
< 50 | < 50 | CC(O)(c1ccncc1)c1cnc(-c2ccc(F)cc2F)s1 (stereo not drawn) [Example 27, 1-[2-(2,4-Difluoro-phenyl)-thiazol-5-yl]-1-pyridin-4-yl-ethanol]
50 to 200 | < 50 | CC(O)(c1ccncc1)c1cnc(-c2ccc(C#N)c(C(F)(F)F)c2)s1 (stereo not drawn) [Example 30, 4-(5-(1-Hydroxy-1-(pyridin-4-yl)ethyl)thiazol-2-yl)-2-(trifluoro-methyl)benzonitrile]
201 to 10000 | 50 to 200 | CC(O)(c1ccncc1)c1cnc(-c2ccc(S(C)(=O)=O)cc2)s1 (stereo not drawn) [Example 45, 1-(2-(4-(methylsulfonyl)-phenyl)thiazol-5-yl)-1-(pyridin-4-yl)ethanol]
< 50 | < 50 | CC(O)(c1ccncc1)c1cnc(-c2ccc(Cl)c(Cl)c2)s1 (stereo not drawn) [Example 43, 1-(2-(3,4-dichlorophenyl)thiazol-5-yl)-1-(pyridin-4-yl)ethanol]
< 50 | < 50 | CC(O)(c1ccncc1)c1cnc(-c2ccc(Cl)c(C#N)c2)s1 (stereo not drawn) [Example 42, 2-chloro-5-(5-(1-hydroxy-1-(pyridin-4-yl)ethyl)thiazol-2-yl)benzonitrile]
< 50 | < 50 | CC(O)(c1ccncc1)c1cnc(-c2ccccc2)s1 (stereo not drawn) [Example 51, 1-(2-phenylthiazol-5-yl)-1-(pyridin-4-yl)ethanol]
< 50 | < 50 | CC(O)(c1ccncc1)c1cnc(-c2ccc(Cl)cc2)s1 (stereo not drawn) [Example 28, 1-(2-(4-Chlorophenyl)thiazol-5-yl)-1-(pyridin-4-yl)ethanol]
